Test results taken from patent US20240327434A1, “FUSED TETRACYCLIC COMPOUND, PREPARATION METHOD THEREFOR AND APPLICATION THEREOF IN MEDICINE” (Jiangsu Hengrui Pharmaceuticals Co., Ltd., priority 2021, published 2024).
pKd: −log10 of the molar value.

Tests used:
[1] = molecular target: KRAS protein subtype G12D (Avi-KRAS-G12D) (Homo sapiens (Human), UniProt P01116, G12D); assay: SPR affinity for KRAS protein subtype G12D (Biacore 8K); assay type: binding; settings: single-cycle kinetic mode, 1:1 model, read-out: G12D KD (unit mol/L)
Protocol: (§1) Biotinylated Avi-KRAS-WT or Avi-KRAS-G12D was diluted to 20 μg/mL with 1x HBS-P+(Cat. #BR1006-71) buffer containing 100 mM MgCl2, and then flowed through SA (Cat. #BR1005-31) biosensing chip channel 2 for 420 s to obtain a coupling level of approximately 5000-7000 RU. Then samples of small molecular compounds were injected for 120 s in an ascending order, and then were dissociated for 720 s. The experiment employed a single-cycle kinetic mode. Reaction signals were detected in real time using a Biacore 8K instrument to obtain association and dissociation curves. After the experiment ended, data analysis was performed using Biacore 8K evaluation software, and affinity data were obtained by performing data fitting using a 1:1 model.

[2] = molecular target: KRAS protein subtype WT (Avi-KRAS-WT) (Homo sapiens (Human), UniProt P01116); assay: SPR affinity for KRAS protein subtype WT (Biacore 8K); assay type: binding; settings: single-cycle kinetic mode, 1:1 model, read-out: WT KD (unit mol/L)
Protocol: as §1

[3] = system: ERK phosphorylation of AGS cells; assay: Inhibition of ERK phosphorylation of AGS cells (HTRF method); assay type: cell-based; settings: Homo sapiens, 1 h compound incubation, phosphorylated ERK/total ERK ratio, read-out: AGS/ IC50 (nM), inhibitory activity for ERK phosphorylation
Protocol: In the experiment, the inhibition effect of the compounds on ERK phosphorylation of the cells was detected, and the inhibition effect of the compounds disclosed herein on the KRAS target was evaluated according to the IC50.
AGS cells (Nanjing Cobioer, CBP60476) were cultured in RPMI1640 (Hyclone, SH30809.01) complete medium containing 10% fetal bovine serum. On the first day of the experiment, the AGS cells were seeded into a 96-well plate with complete medium at a density of 40,000 cells/well to form 190 μL of cell suspension per well. The plate was incubated overnight in a cell incubator at 37° C. with 5% CO2.
The next day, 10 μL of serially-diluted test compound prepared from the complete medium was added to each well. The final concentrations of the compound were 9 concentration points obtained by 5-fold serial dilution from 10 μM. A blank control containing 0.5% DMSO was set. The well plate was incubated in a cell incubator at 37° C. with 5% CO2 for 1 h. After completion of incubation, the 96-well cell culture plate was taken out, the medium was removed by pipetting, 200 μL PBS (Shanghai BasalMedia Technologies Co., Ltd., B320) was added to each well, and the cells were washed once. PBS was removed by pipetting, 50 μL of lysis buffer (Cisbio, 64KL1FDF) containing a blocking solution (blocking reagent, Cisbio, 64KB1AAC) was added to each well, and the well plate was lysed on a shaker for 40 min at room temperature with shaking. After lysis, the lysate was pipetted and mixed well, 16 μL of lysate was transferred to two HTRF 96-well assay plates (Cisbio, 66PL96100) per well, and then 4 μL of premixed phosphorylated ERK1/2 antibody solution (Cisbio, 64AERPEG) or 4 μL of premixed total ERK1/2 antibody solution (Cisbio, 64NRKPEG) was added to these two plates. The microplate was sealed with a sealing membrane, centrifuged for 1 min in a microplate centrifuge, and incubated overnight at room temperature in the dark. On the third day, the fluorescence values at an excitation wavelength of 337 nm and at emission wavelengths of 665 nm and 620 nm were read using an ENVISION multifunctional microplate reader (PerkinElmer, ENVISION).

GP2d cells = assay: Inhibition of 3D proliferation of GP2d cells (CellTiter-Glo 3D); assay type: cell-based; settings: 120 h incubation, read-out: GP2d/ IC50 (nM), inhibitory activity for 3D proliferation
Protocol: (§2) The inhibition effect of the compounds disclosed herein on the KRAS target was evaluated by testing the 3D proliferation inhibition effect of the compounds disclosed herein on GP2d and AGS cells.
GP2d cells (Nanjing Cobioer, CBP60010) were cultured in a complete medium, namely DMEM/high glucose medium (Hyclone, SH30243.01) containing 10% fetal bovine serum (Corning, 35-076-CV). On the first day of the experiment, GP2d cells were seeded into a 96-well low adsorption plate (Corning, CLS7007-24EA) with complete medium at a density of 1,000 cells/well to form 90 μL of cell suspension per well. The plate was centrifuged at 2,000 rpm for 5 min at room temperature and then incubated overnight in a cell incubator at 37° C. with 5% CO2.
The next day, 10 μL of serially-diluted test compound prepared from the complete medium was added to each well. […] A blank control containing 0.5% DMSO was set. The well plate was incubated in a cell incubator at 37° C. with 5% CO2 for 120 h.

AGS cells = assay: Inhibition of 3D proliferation of AGS cells (CellTiter-Glo 3D); assay type: cell-based; settings: Homo sapiens, 120 h incubation, read-out: AGS/ IC50 (nM), inhibitory activity for 3D proliferation
Protocol: as §2
AGS cells (Nanjing Cobioer, CBP60476) were cultured in a complete medium, namely RPMI1640 medium (Hyclone, SH30809.01) containing 10% fetal bovine serum (Corning, 35-076-CV). On the first day of the experiment, the AGS cells were seeded into a 96-well low adsorption plate (Corning, CLS7007-24EA) at a density of 1,000 cells/well using complete medium to form 90 μL of cell suspension per well. The plate was centrifuged at 2,000 rpm for 5 min at room temperature and then incubated overnight in a cell incubator at 37° C. with 5% CO2.
The next day, 10 μL of serially-diluted test compound prepared from the complete medium was added to each well. […] On the seventh day, the 96-well cell culture plate was taken out, 50 μL CellTiter-Glo® 3D reagent (Promega, G9682) was added into each well, the plate was shaken at room temperature for 25 min, pipetted and mixed well, 50 μL of the solution was transferred into a white impermeable 96-well plate (PE, 6005290), and the luminescence signal values were read using a multifunctional microplate reader (PerkinElmer, ENVISION).

Chain of KRAS protein subtype WT (Avi-KRAS-WT) (P01116 whole entry): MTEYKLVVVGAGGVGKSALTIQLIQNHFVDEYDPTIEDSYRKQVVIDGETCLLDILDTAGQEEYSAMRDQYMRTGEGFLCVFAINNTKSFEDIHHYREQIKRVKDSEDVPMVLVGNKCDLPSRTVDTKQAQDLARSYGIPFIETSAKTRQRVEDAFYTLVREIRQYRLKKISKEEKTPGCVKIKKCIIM
Chain of KRAS protein subtype G12D (Avi-KRAS-G12D) (P01116 whole entry G12D): as the sequence (P01116 whole entry) above, with G12D counted along it

| Structure (SMILES) | pKd [1] | pKd [2] | IC50 [3] [nM] | IC50 (GP2d cells) [nM] | IC50 (AGS cells) [nM] |
| --- | --- | --- | --- | --- | --- |
| CCc1cccc2cc(O)cc(-c3cc4nc(OC[C@@]56CCCN5C[C@H](F)C6)nc5c4c(n3)OCC3C4CCC(CN53)N4)c12 (mixture of isomers) [Diastereomeric (1:1) mixture of 2-p1 and 2-p2, 5-Ethyl-4-(12-(((2R,7aS)-2-fluorotetrahydro-1H-pyrrolizin-7a(5H)-yl)methoxy)-5a,6,7,8,9,10-hexahydro-5H-4-oxa-3,10a,11,13,14-pentaaza-6,9-methanonaphtho[1,8-ab]heptalen-2-yl) naphthalen-2-ol] | 9.40 | 7.49 |  |  |  |
| CCc1c(F)ccc2cc(O)cc(-c3nc4c5c(nc(OC[C@@]67CCCN6C[C@H](F)C7)nc5c3F)N3C[C@H]5CC[C@H](N5)[C@H]3CO4)c12 [Example 9-p1, 5-Ethyl-6-fluoro-4-((5aS,6S,9R)-1-fluoro-12-(((2R,7aS)-2-fluorotetrahydro-1H-pyrrolizin-7a(5H)-yl)methoxy)-5a,6,7,8,9,10-hexahydro-5H-4-oxa-3,10a, 11,13,14-pentaaza-6,9-methanonaphtho[1,8-ab]heptalen-2-yl)naphthalen-2-ol] | 10.52 | 8.81 |  |  |  |
| CCc1c(F)ccc2cc(O)cc(-c3nc4c5c(nc(OCC6(CN7C[C@H]8C[C@H]8[C@H]7CO)CC6)nc5c3F)N3C[C@H]5CC[C@H](N5)[C@H]3CO4)c12 [Example 22, 5-Ethyl-6-fluoro-4-((5aS,6S,9R)-1-fluoro-12-((1-(((1R,2S,5S)-2-(hydroxymethyl)-3-azabicyclo[3.1.0]hex-3-yl)methyl)cyclopropyl)methoxy)-5a,6,7,8,9,10-hexahydro-5H-4-oxa-3,10a, 11,13,14-pentaaza-6,9-methanonaphtho[1,8-ab]heptalen-2-yl)naphthalen-2-ol] |  |  | 10.2 | 9.6 |  |
| CCc1cccc2cc(O)cc(-c3nc4c5c(nc(OC[C@@]67CCCN6C[C@H](F)C7)nc5c3F)N3CC5CCC(N5)C3CO4)c12 (mixture of isomers) [Diastereomeric (1:1) mixture of 4-p1 and 4-p2, 5-Ethyl-4-(1-fluoro-12-(((2R,7aS)-2-fluorotetrahydro-1H-pyrrolizin-7a(5H)-yl)methoxy)-5a,6,7,8,9,10-hexahydro-5H-4-oxa-3,10a,11,13,14-pentaaza-6,9-methanonaphtho[1,8-ab]heptalen-2-yl)naphthalen-2-ol] |  |  | 1.35 |  |  |
| Oc1cc(-c2cc3nc(OC[C@@]45CCCN4C[C@H](F)C5)nc4c3c(n2)OCC2C3CCC(CN42)N3)c2c(F)cccc2c1 (mixture of isomers) [Diastereomeric (1:1) mixture of 1-p1 and 1-p2, 5-Fluoro-4-(12-(((2R,7aS)-2-fluorotetrahydro-1 H-pyrrolizin-7a(5H)-yl)methoxy)-5a,6,7,8,9,10-hexahydro-5H-4-oxa-3,10a,11,13,14-pentaaza-6,9-methanonaphtho[1,8-ab]heptalen-2-yl) naphthalen-2-ol] |  |  | 94.1 |  |  |
| CCc1cccc2cc(O)cc(-c3cc4c5c(nc(OC[C@@]67CCCN6C[C@H](F)C7)nc5c3F)N3CC5CCC(N5)C3CO4)c12 (mixture of isomers) [Diastereomeric (1:1) mixture of 11-p1 and 11-p2, 5-Ethyl-4-(1-fluoro-13-(((2R,7aS)-2-fluorotetrahydro-1H-pyrrolizin-7a(5H)-yl)methoxy)-5a,6,7,8,9,10-hexahydro-5H-6,9-epiminoazepino[2′,1′: 3,4][1,4]oxazepino[5,6,7-de]quinazolin-2-yl) naphthalen-2-ol] |  |  | 15.6 | 62.5 |  |
| CCc1c(F)ccc2cc(O)cc(-c3nc4c5c(nc(OCC6(CN7CC8CC8(CO)C7)CC6)nc5c3F)N3C[C@H]5CC[C@H](N5)[C@H]3CO4)c12 (stereo partly drawn) [Example 23, 5-Ethyl-6-fluoro-4-((5aS,6S,9R)-1-fluoro-12-((1-((1-(hydroxymethyl)-3-azabicyclo[3.1.0]hex-3-yl)methyl)cyclopropyl)methoxy)-5a,6,7,8,9,10-hexahydro-5H-4-oxa-3,10a, 11,13,14-pentaaza-6,9-methanonaphtho[1,8-ab]heptalen-2-yl)naphthalen-2-ol] |  |  | 4 | 8.8 | 108 |
| CCc1cccc2cc(O)cc(-c3nc4c5c(nc(OC[C@@]67CCCN6C[C@H](F)C7)nc5c3F)N3C[C@H]5CC[C@H](N5)[C@H]3CO4)c12 [Example 4-p1, 5-Ethyl-4-((5aS,6S,9R)-1-fluoro-12-(((2R,7aS)-2-fluorotetrahydro-1H-pyrrolizin-7a(5H)-yl)methoxy)-5a,6,7,8,9,10-hexahydro-5H-4-oxa-3,10a, 11,13,14-pentaaza-6,9-methanonaphtho[1,8-ab]heptalen-2-yl)naphthalen-2-ol] | 9.85 | 8.47 |  |  |  |
| Oc1cc(Cl)c(C2CC2)c(-c2nc3c4c(nc(OC[C@@]56CCCN5C[C@H](F)C6)nc4c2F)N2C[C@H]4CC[C@H](N4)[C@H]2CO3)c1 [Example 6-p1, 3-Chloro-4-cyclopropyl-5-((5aS,6S,9R)-1-fluoro-12-(((2R,7aS)-2-fluorotetrahydro-1H-pyrrolizin-7a(5H)-yl)methoxy)-5a,6,7,8,9,10-hexahydro-5H-4-oxa-3,10a,11,13,14-pentaaza-6,9-methanonaphtho[1,8-ab]heptalen-2-yl)phenol] | 10.00 | 8.15 |  |  |  |
| Oc1cc(-c2nc3c4c(nc(OC[C@@]56CCCN5C[C@H](F)C6)nc4c2F)N2C[C@H]4CC[C@H](N4)[C@H]2CO3)c2c(F)c(F)ccc2c1 [Example 8-p1, 5,6-Difluoro-4-((5aS,6S,9R)-1-fluoro-12-(((2R,7aS)-2-fluorotetrahydro-1H-pyrrolizin-7 a(5H)-yl)methoxy)-5a,6,7,8,9,10-hexahydro-5H-4-oxa-3,10a,11,13,14-pentaaza-6,9-methanonaphtho[1,8-ab]heptalen-2-yl)naphthalen-2-ol] | 10.00 | 8.42 |  |  |  |
